Measurements taken from publication PMC3927474, “Whole body synthesis rates of DHA from α-linolenic acid are greater than brain DHA accretion and uptake rates in adult rats” (Journal of Lipid Research, 2014).

Tests used:
Test in all cases: Brain gene expression (TLDA qPCR)
Format in all cases: in vivo, rat
Details in all cases: 15 wk diet; control diet = 1
PPARg = system: PPARg
Protocol: (§1) RNA was extracted from the flash-frozen half brains of the 15 week postweaning rats. The brain was briefly thawed and dissected to isolate the brainstem, cerebellum, cortex, hippocampus, striatum, and the rest of the brain. RNA was extracted from the brain regions using Trizol reagent (Ambion; Life Technologies, Burlington, ON, Canada) according to the manufacturer's protocol. […] Chloroform was added to the Trizol reagent at a ratio of 1:5 (chloroform:Trizol reagent) and the solution was mixed and incubated at room temperature. The solution was then centrifuged at 12,000 g for 15 min at 4°C. […] The samples were then centrifuged at 12,000 g for 10 min at 4°C to precipitate the RNA pellet. […] The pellet was allowed to air dry, and was then dissolved in RNase-free water. A Nanodrop 1000 (NanoDrop Technologies Inc., Wilmington, DE) was used to determine the concentration and purity of each sample by measuring absorbance at 260 and 280 nm. Each sample was aliquoted to make 1 μg of RNA per 10 μl of sample and stored at -80°C. A high-capacity cDNA reverse transcription kit (Applied Biosystems, Burlington, ON, Canada) was used to reverse transcribe 1 μg of RNA according to the manufacturer's instructions. Newly synthesized cDNA was stored at -20°C until the following day when it was loaded onto TaqMan low density array (TLDA) plates. Quantitative real-time PCR was performed using TLDA (Applied Biosystems) on the 7900HT real-time PCR system (Applied Biosystems). cDNA (50 ng) was diluted with water to make a volume of 50 μl and mixed with 50 μl of TaqMan Universal PCR Master Mix (Applied Biosystems). The mixture was then loaded onto a customized preconfigured 384-well TLDA plate according to the manufacturer's protocol. TaqMan gene expression assays were used to assess 21 genes that were previously reported to be differentially expressed with n-3 deprivation. […] All genes were normalized to phosphoglycerate kinase 1. Similar results were found when normalizing to β-actin or 18S rRNA.

α-synuclein = system: α-synuclein
Protocol: as §1

TNF-α receptor member 1a = system: TNF-α receptor member 1a
Protocol: as §1

heme oxygenase 1 = system: heme oxygenase 1
Protocol: as §1

retnoid X receptor β = system: retnoid X receptor β
Protocol: as §1

β-actin = system: β-actin
Protocol: as §1

group 2a sPLA2 = system: group 2a sPLA2
Protocol: as §1

uncoupling protein 2 = system: uncoupling protein 2
Protocol: as §1

retnoid X receptor α = system: retnoid X receptor α
Protocol: as §1

15-lipoxygenase = system: 15-lipoxygenase
Protocol: as §1

dopamine receptor D2 = system: dopamine receptor D2
Protocol: as §1

transthyretin = system: transthyretin
Protocol: as §1

[1] = system: prostaglandin E synthase 3
Protocol: as §1

COX-2 = system: COX-2
Protocol: as §1

retinoic acid receptor α = system: retinoic acid receptor α
Protocol: as §1

[2] = system: vesicular monoamine transporter 2
Protocol: as §1

group 4 cPLA2 = system: group 4 cPLA2
Protocol: as §1

CC/C=C\C/C=C\C/C=C\CCCCCCCC(=O)O [ALA, α-linolenic acid]
Brainstem gene expression: PPARg (PPARg): 0.91 RQ
Cerebellum gene expression: PPARg (PPARg): 1.17 RQ
Cortex gene expression: PPARg (PPARg): 1.21 RQ
Hippocampus gene expression: PPARγ (PPARg): 0.47 RQ
Rest of brain gene expression: PPARg (PPARg): 1.18 RQ
Striatum gene expression: PPARg (PPARg): 0.90 RQ
Brainstem gene expression: SNCa (α-synuclein): 0.95 RQ
Cerebellum gene expression: SNCa (α-synuclein): 0.96 RQ
Cortex gene expression: SNCa (α-synuclein): 1.08 RQ
Hippocampus gene expression: SNCa (α-synuclein): 1.10 RQ
Rest of brain gene expression: SNCa (α-synuclein): 0.97 RQ
Striatum gene expression: SNCa (α-synuclein): 1.05 RQ
Brainstem gene expression: TNFaR1a (TNF-α receptor member 1a): 1.30 RQ
Cerebellum gene expression: TNFaR1a (TNF-α receptor member 1a): 1.12 RQ
Cortex gene expression: TNFaR1a (TNF-α receptor member 1a): 1.11 RQ
Hippocampus gene expression: TNFa R 1a (TNF-α receptor member 1a): 1.14 RQ
Rest of brain gene expression: TNFaR1a (TNF-α receptor member 1a): 0.95 RQ
Striatum gene expression: TNFaR1a (TNF-α receptor member 1a): 0.98 RQ
Brainstem gene expression: HO1 (heme oxygenase 1): 1.01 RQ
Cerebellum gene expression: HO1 (heme oxygenase 1): 1.21 RQ
Cortex gene expression: HO1 (heme oxygenase 1): 1.05 RQ
Hippocampus gene expression: HO1 (heme oxygenase 1): 1.01 RQ
Rest of brain gene expression: HO1 (heme oxygenase 1): 1.00 RQ
Striatum gene expression: HO1 (heme oxygenase 1): 1.09 RQ
Brainstem gene expression: RXRb (retnoid X receptor β): 1.15 RQ
Cerebellum gene expression: RXRb (retnoid X receptor β): 1.04 RQ
Cortex gene expression: RXR b (retnoid X receptor β): 1.02 RQ
Hippocampus gene expression: RXR b (retnoid X receptor β): 0.97 RQ
Rest of brain gene expression: RXR b (retnoid X receptor β): 0.91 RQ
Striatum gene expression: RXRb (retnoid X receptor β): 1.10 RQ
Brainstem gene expression: b-actin (β-actin): 1.11 RQ
Cerebellum gene expression: b actin (β-actin): 1.10 RQ
Cortex gene expression: b actin (β-actin): 1.05 RQ
Hippocampus gene expression: B-actin (β-actin): 1.13 RQ
Rest of brain gene expression: b actin (β-actin): 1.00 RQ
Striatum gene expression: b actin (β-actin): 1.04 RQ
Brainstem gene expression: sPLA2 (group 2a sPLA2): 0.72 RQ
Cerebellum gene expression: sPLA2 (group 2a sPLA2): 0.86 RQ
Cortex gene expression: spla2 (group 2a sPLA2): 0.85 RQ
Hippocampus gene expression: sPLA2 (group 2a sPLA2): 1.08 RQ
Rest of brain gene expression: sPLA2 (group 2a sPLA2): 0.67 RQ
Striatum gene expression: sPLA2 (group 2a sPLA2): 0.46 RQ
Brainstem gene expression: UCP2 (uncoupling protein 2): 1.05 RQ
Cerebellum gene expression: UCP2 (uncoupling protein 2): 1.17 RQ
Cortex gene expression: UCP2 (uncoupling protein 2): 1.04 RQ
Hippocampus gene expression: UCP2 (uncoupling protein 2): 1.26 RQ
Rest of brain gene expression: UCP2 (uncoupling protein 2): 0.97 RQ
Striatum gene expression: UCP2 (uncoupling protein 2): 1.09 RQ
Brainstem gene expression: RXRa (retnoid X receptor α): 0.99 RQ
Cerebellum gene expression: RXRa (retnoid X receptor α): 1.15 RQ
Cortex gene expression: RXR a (retnoid X receptor α): 1.02 RQ
Hippocampus gene expression: RXR a (retnoid X receptor α): 1.08 RQ
Rest of brain gene expression: RXR a (retnoid X receptor α): 1.05 RQ
Striatum gene expression: RXRa (retnoid X receptor α): 1.14 RQ
Brainstem gene expression: 15 LOX (15-lipoxygenase): 0.91 RQ
Cerebellum gene expression: 15 LOX (15-lipoxygenase): 0.63 RQ
Cortex gene expression: 15 LOX (15-lipoxygenase): 0.77 RQ
Hippocampus gene expression: 15 LOX (15-lipoxygenase): 0.74 RQ
Rest of brain gene expression: 15 LOX (15-lipoxygenase): 0.62 RQ
Striatum gene expression: 15 LOX (15-lipoxygenase): 1.00 RQ
Brainstem gene expression: DR D2 (dopamine receptor D2): 0.96 RQ
Cerebellum gene expression: DR D2 (dopamine receptor D2): 1.13 RQ
Cortex gene expression: DR D2 (dopamine receptor D2): 1.11 RQ
Hippocampus gene expression: DR D2 (dopamine receptor D2): 1.27 RQ
Rest of brain gene expression: DR D2 (dopamine receptor D2): 1.00 RQ
Striatum gene expression: DR D2 (dopamine receptor D2): 1.20 RQ
Brainstem gene expression: TTR (transthyretin): 0.93 RQ
Cerebellum gene expression: TTR (transthyretin): 1.75 RQ
Cortex gene expression: TTR (transthyretin): 0.75 RQ
Hippocampus gene expression: TTR (transthyretin): 6.67 RQ
Rest of brain gene expression: TTR (transthyretin): 0.71 RQ
Striatum gene expression: TTR (transthyretin): 2.37 RQ
Brainstem gene expression: PGES3 [1]: 1.14 RQ
Cerebellum gene expression: PGES3 [1]: 1.09 RQ
Cortex gene expression: PGES3 [1]: 0.91 RQ
Hippocampus gene expression: PGES3 [1]: 1.00 RQ
Rest of brain gene expression: PGES3 [1]: 0.99 RQ
Striatum gene expression: PGES3 [1]: 0.95 RQ
Brainstem gene expression: COX 2 (COX-2): 0.87 RQ
Cerebellum gene expression: COX 2 (COX-2): 1.46 RQ
Cortex gene expression: COX 2 (COX-2): 1.17 RQ
Hippocampus gene expression: COX 2 (COX-2): 1.15 RQ
Rest of brain gene expression: COX 2 (COX-2): 0.92 RQ
Striatum gene expression: COX 2 (COX-2): 1.04 RQ
Brainstem gene expression: RARa (retinoic acid receptor α): 1.00 RQ
Cerebellum gene expression: RARa (retinoic acid receptor α): 1.07 RQ
Cortex gene expression: RAR a (retinoic acid receptor α): 1.03 RQ
Hippocampus gene expression: RAR a (retinoic acid receptor α): 0.96 RQ
Rest of brain gene expression: RAR a (retinoic acid receptor α): 0.91 RQ
Striatum gene expression: RARa (retinoic acid receptor α): 0.93 RQ
Brainstem gene expression: VMAT2 [2]: 1.34 RQ
Hippocampus gene expression: VMAT 2 [2]: 0.84 RQ
Rest of brain gene expression: VMAT2 [2]: 1.12 RQ
Brainstem gene expression: cPLA2 (group 4 cPLA2): 0.98 RQ
Cerebellum gene expression: cPLA2 (group 4 cPLA2): 1.17 RQ
Cortex gene expression: cPLA2 (group 4 cPLA2): 0.93 RQ
Hippocampus gene expression: cPLA2 (group 4 cPLA2): 1.10 RQ
Rest of brain gene expression: cPLA2 (group 4 cPLA2): 0.85 RQ
Striatum gene expression: cPLA2 (group 4 cPLA2): 1.04 RQ
